This test has as its target T1, human RORγ-LBD (Homo sapiens, UniProt P51449).
T1 construct: made in house; host or cells: E. coli (BL-21)
T1 sequence (P51449 262-518): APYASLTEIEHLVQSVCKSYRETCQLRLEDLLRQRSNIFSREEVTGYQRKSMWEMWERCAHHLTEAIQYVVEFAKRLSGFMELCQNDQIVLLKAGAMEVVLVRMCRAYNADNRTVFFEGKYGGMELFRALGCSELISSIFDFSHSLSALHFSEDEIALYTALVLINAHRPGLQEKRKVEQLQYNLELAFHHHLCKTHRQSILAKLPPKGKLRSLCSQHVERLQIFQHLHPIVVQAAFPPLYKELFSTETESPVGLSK
Nature of the test: ROR gamma coactivator peptide recruitment Alphascreen assay (RORγ-LBD binding to GRIP1 coactivator peptide). Format: biochemical. The following applies: 5 nM human RORγ-LBD, 30 nM 7-β-hydroxycholesterol, 50 nM biotinylated GRIP1 coactivator peptide, overnight incubation at room temperature; read-out: result (pIC50, RORγ coactivator peptide recruitment Alphascreen assay) (converted). The source says: Alphascreen™ is a bead-based amplified homogenous luminescent proximity assay that can be used for measuring the effect of compounds on protein-protein interactions. When biological interactions bring donor and acceptor beads into close proximity, reactive oxygen, generated upon laser excitation of the donor beads, initiates a luminescence/fluorescence cascade in the acceptor beads that leads to a highly amplified signal that can be measured as light in the 520-620 nm range. When the acceptor and donor beads are not in proximity, the reactive oxygen decays and only a very low background signal is generated.
An in vitro assay to assess inhibition of RORγ binding to the coactivator GRIP1 was established using Alphascreen™ technology. The interaction between nuclear receptors (NR) and coactivator proteins is a key step in signal transduction from the receptor to the transcriptional machinery and can be measured in vitro using only the ligand binding domain of the nuclear receptor and a peptide containing a coactivator protein LXXLL nuclear receptor binding motif
For the RORγ construct used in the coactivator recruitment assay, nucleotides corresponding to the ligand binding domain (LBD) of wild type human RORγ (amino acids 262-518 of Genbank Accession No. NM_005060.3) were cloned into the pET24 expression vector (Novagen), downstream of in-frame N-terminal 6×His and Flag tag sequences. Recombinant 6×His:Flag-tagged human RORγ-LBD protein was expressed in E. coli (BL-21) and purified by affinity chromatography on a nickel Sepharose column, followed by anion exchange chromatography.
A 4× assay mixture of 6×His:Flag-tagged human RORγ-LBD with the agonist ligand 7-β-hydroxycholesterol was prepared in assay buffer (50 mM HEPES pH 7.4, BSA 0.05%, 150 mM NaCl, 5 mM MgCl2, 1 mM DTT, 0.01% Tween-20). For control wells a 4× mixture of 6×His:Flag-tagged human ROR gamma LBD alone was also prepared.
A 4× stock of biotinylated coactivator peptide containing the LXXLL motif from GRIP1 (Biotin-[…]) was prepared in assay buffer.
A 4×detection mixture of nickel chelate Alphascreen™ acceptor beads (PerkinElmer) and streptavidin Alphascreen™ donor beads (PerkinElmer) was prepared in assay buffer.
Compounds to be tested were arranged in a pre-dose 384-well mother plate serially diluted 1 in 2 over 22 columns, in 100% DMSO, at 40× the final test concentration, from a high concentration of 4 mM. DMSO with no compound was placed in control columns. The compounds were robotically dispensed directly into assay plates containing assay buffer to a 4× final test concentration.
Following compound addition, the 6×His:Flag-tagged human RORγ-LBD plus 7-β-hydroxycholesterol assay mixture, biotinylated coactivator peptide and detection mixture were added. Final assay conditions were 5 nM 6×His:Flag-tagged human RORγ-LBD, 30 nM 7-β-hydroxycholesterol, 50 nM biotinylated coactivator peptide, 2.5 ug/ml nickel acceptor beads and 10 ug/ml streptavidin donor beads. The final concentration of DMSO in the assay was 2.5%.
After overnight incubation at room temperature plates were read on and Envision™ plate reader (PerkinElmer).
Data was plotted and pIC50 values were calculated using the Genedata Screener™ data analysis suite (Genedata).
Background: In Alpha technology, singlet oxygen from a donor bead excites a nearby acceptor bead.

With `C[C@H]1C[C@@H](n2ncc(C(=O)N(CC(=O)c3c(Cl)cncc3Cl)CC(C)(C)C(F)(F)F)c2C(F)(F)F)CC[C@@H]1C(=O)O` (stereo in doubt) [Example 864, (1S,2S,4S)-4-(4-((2-(3,5-dichloro-4-pyridinyl)-2-oxoethyl)(3,3,3-trifluoro-2,2-dimethylpropyl)carbamoyl)-5-(trifluoromethyl)-1H-pyrazol-1-yl)-2-methylcyclohexanecarboxylic acid], the IC50 was 2.95 nM.
As for `O=C(c1cnn([C@H]2CC[C@H](C(=O)O)CC2)c1C(F)(F)F)N(CCc1ccccc1Cl)Cc1ccc(Cl)cc1` [Example 500, trans-4-(4-((4-chlorobenzyl)(2-(2-chlorophenyl)ethyl)carbamoyl)-5-(trifluoromethyl)-1H-pyrazol-1-yl)cyclohexanecarboxylic acid], the figure is 15.1 nM; as for `O=C(c1cnn([C@H]2CC[C@H](C(=O)O)CC2)c1C(F)(F)F)N(CCc1c(Cl)cccc1Cl)Cc1ccc(Cl)cc1` [Example 501, trans-4-(4-((4-chlorobenzyl)(2-(2,6-dichlorophenyl)ethyl)carbamoyl)-5-(trifluoromethyl)-1H-pyrazol-1-yl)cyclohexanecarboxylic acid], 3.8 nM.
With `O=C(c1cnn([C@H]2CC[C@H](C(=O)O)CC2)c1C(F)(F)F)N(CCc1ccccc1)Cc1ccc(Cl)cc1` [Example 502, trans-4-(4-((4-chlorobenzyl)(2-phenylethyl)carbamoyl)-5-(trifluoromethyl)-1H-pyrazol-1-yl)cyclohexanecarboxylic acid] the figure was 275 nM.
With `O=C(c1cnn([C@H]2CC[C@H](C(=O)O)CC2)c1C(F)(F)F)N(CCc1ccc2cc[nH]c2c1)Cc1ccc(Cl)cc1` [Example 503, trans-4-(4-((4-chlorobenzyl)(2-(1H-indol-6-yl)ethyl)carbamoyl)-5-(trifluoromethyl)-1H-pyrazol-1-yl)cyclohexanecarboxylic acid] the figure was 355 nM; with `O=C(c1cnn([C@H]2CC[C@H](C(=O)O)CC2)c1C(F)(F)F)N(CCc1ccc(Cl)cc1Cl)Cc1ccc(Cl)cc1` [Example 504, trans-4-(4-((4-chlorobenzyl)(2-(2,4-dichlorophenyl)ethyl)carbamoyl)-5-(trifluoromethyl)-1H-pyrazol-1-yl)cyclohexanecarboxylic acid], 6.92 nM; with `Cc1ccc(CCN(Cc2ccc(Cl)cc2)C(=O)c2cnn([C@H]3CC[C@H](C(=O)O)CC3)c2C(F)(F)F)c(C)c1` [Example 505, trans-4-(4-((4-chlorobenzyl)(2-(2,4-dimethylphenyl)ethyl)carbamoyl)-5-(trifluoromethyl)-1H-pyrazol-1-yl)cyclohexanecarboxylic acid], 5.89 nM.
For `O=C(c1cnn([C@H]2CC[C@H](C(=O)O)CC2)c1C(F)(F)F)N(CCc1cccc2[nH]ccc12)Cc1ccc(Cl)cc1` [Example 506, trans-4-(4-((4-chlorobenzyl)(2-(1H-indol-4-yl)ethyl)carbamoyl)-5-(trifluoromethyl)-1H-pyrazol-1-yl)cyclohexanecarboxylic acid], the IC50 is 69.2 nM.
As for `O=C(c1cnn([C@H]2CC[C@H](C(=O)O)CC2)c1C(F)(F)F)N(CCc1c[nH]c2ccccc12)Cc1ccc(Cl)cc1` [Example 507, trans-4-(4-((4-chlorobenzyl)(2-(1H-indol-3-yl)ethyl)carbamoyl)-5-(trifluoromethyl)-1H-pyrazol-1-yl)cyclohexanecarboxylic acid], the figure is 32.4 nM; as for `O=C(c1cnn([C@H]2CC[C@H](C(=O)O)CC2)c1C(F)(F)F)N(CCc1cccc2cc[nH]c12)Cc1ccc(Cl)cc1` [Example 508, trans-4-(4-((4-chlorobenzyl)(2-(1H-indol-7-yl)ethyl)carbamoyl)-5-(trifluoromethyl)-1H-pyrazol-1-yl)cyclohexanecarboxylic acid], 759 nM.
For `Cc1ccccc1CCN(Cc1ccc(Cl)cc1)C(=O)c1cnn([C@H]2CC[C@H](C(=O)O)CC2)c1C(F)(F)F` [Example 509, trans-4-(4-((4-chlorobenzyl)(2-(2-methylphenyl)ethyl)carbamoyl)-5-(trifluoromethyl)-1H-pyrazol-1-yl)cyclohexanecarboxylic acid], the IC50 is 11.5 nM.
With `Cc1cc(Cl)c(CCN(CC2CCCCC2)C(=O)c2cnn([C@H]3CC[C@H](C(=O)O)CC3)c2C(F)(F)F)c(Cl)c1` [Example 510, trans-4-(4-((cyclohexylmethyl)(2-(2,6-dichloro-4-methylphenyl)ethyl)carbamoyl)-5-(trifluoromethyl)-1H-pyrazol-1-yl)cyclohexanecarboxylic acid] the figure was 1.78 nM; with `Cc1[nH]c2ccccc2c1CCN(Cc1ccc(Cl)cc1)C(=O)c1cnn([C@H]2CC[C@H](C(=O)O)CC2)c1C(F)(F)F` [Example 513, trans-4-(4-((4-chlorobenzyl)(2-(2-methyl-1H-indol-3-yl)ethyl)carbamoyl)-5-(trifluoromethyl)-1H-pyrazol-1-yl)cyclohexanecarboxylic acid], 33.1 nM.
As for `Cc1cc(Cl)c(CCN(CC2CCCCC2)C(=O)c2cnn([C@H]3CC[C@](C)(C(=O)O)CC3)c2C(F)(F)F)c(Cl)c1` [Example 514, trans-4-(4-((cyclohexylmethyl)(2-(2,6-dichloro-4-methylphenyl)ethyl)carbamoyl)-5-(trifluoromethyl)-1H-pyrazol-1-yl)-1-methylcyclohexanecarboxylic acid], the figure is 1.91 nM; as for `Cc1cc(Cl)c(CCN(CC(C)(C)C)C(=O)c2cnn([C@H]3CC[C@](C)(C(=O)O)CC3)c2C(F)(F)F)c(Cl)c1` [Example 515, trans-4-(4-((2-(2,6-dichloro-4-methylphenyl)ethyl)(2,2-dimethylpropyl)carbamoyl)-5-(trifluoromethyl)-1H-pyrazol-1-yl)-1-methylcyclohexanecarboxylic acid], 4.68 nM.
With `Cc1cc(Cl)c(C(=O)CN(CC(C)(C)C)C(=O)c2cnn([C@H]3CC[C@H](C(=O)O)CC3)c2C(F)(F)F)c(Cl)c1` [Example 517, trans-4-(4-((2-(2,6-dichloro-4-methylphenyl)-2-oxoethyl)(2,2-dimethylpropyl)carbamoyl)-5-(trifluoromethyl)-1H-pyrazol-1-yl)cyclohexanecarboxylic acid] the figure was 25.1 nM; with `Cc1cc(Cl)c(C(=O)CN(CC2CCC3(CC2)CC3)C(=O)c2cnn([C@H]3CC[C@H](C(=O)O)CC3)c2C(F)(F)F)c(Cl)c1` [Example 518, trans-4-(4-((2-(2,6-dichloro-4-methylphenyl)-2-oxoethyl)(spiro[2.5]oct-6-ylmethyl)carbamoyl)-5-(trifluoromethyl)-1H-pyrazol-1-yl)cyclohexanecarboxylic acid], 2.63 nM.
For `Cc1cc(Cl)c(C(=O)CN(CC2(C)CCCCC2)C(=O)c2cnn([C@H]3CC[C@H](C(=O)O)CC3)c2C(F)(F)F)c(Cl)c1` [Example 519, trans-4-(4-((2-(2,6-dichloro-4-methylphenyl)-2-oxoethyl)((1-methylcyclohexyl)methyl)carbamoyl)-5-(trifluoromethyl)-1H-pyrazol-1-yl)cyclohexanecarboxylic acid], the IC50 was 5.13 nM.
With `Cc1cc(Cl)c(C(=O)CN(CC2CC(C)(C)C2)C(=O)c2cnn([C@H]3CC[C@H](C(=O)O)CC3)c2C(F)(F)F)c(Cl)c1` [Example 520, trans-4-(4-((2-(2,6-dichloro-4-methylphenyl)-2-oxoethyl)((3,3-dimethylcyclobutyl)methyl)carbamoyl)-5-(trifluoromethyl)-1H-pyrazol-1-yl)cyclohexanecarboxylic acid] the figure was 2.51 nM.

Source of the values: US9365522B2, “Pyrazole amide derivative” (AMGEN INC., priority 2015, dated 2016).
